Test results reported in ChEMBL document CHEMBL1201862, “PubChem BioAssay data set” (2004).
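Interpolation was linear, between the two tested concentrations surrounding the appropriate level; five concentrations were tested over 48 hours in 96-well plates. The concentration for 50% growth inhibition is given as GI50.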 The source made the active and inactive calls. Rule as the data show it: active = GI50 up to about 1.1 µM and inactive = higher.

Key:
Experiment in all cases: inhibition of tumour cell growth, NCI panel, 48 h
HCC 2998 = test system: HCC 2998
HCT-15 = test system: HCT-15
SK-MEL-28 = test system: SK-MEL-28
LOX IMVI = test system: LOX IMVI
EKVX = test system: EKVX
U-251 = test system: U-251
HL-60 = test system: HL-60
UACC-62 = test system: UACC-62
KM12 = test system: KM12
MOLT-4 = test system: MOLT-4
MDA-MB-231 = test system: MDA-MB-231
SK-MEL-2 = test system: SK-MEL-2
UO-31 = test system: UO-31
SR = test system: SR
SW-620 = test system: SW-620
MDA-MB-435 = test system: MDA-MB-435
HT-29 = test system: HT-29
786-0 = test system: 786-0
SK-OV-3 = test system: SK-OV-3
RXF 393 = test system: RXF 393

For `O=C(CCC(=O)c1ccc(Cl)cc1)NO`, the GI50 (HCC 2998) was > 100 µM (inactive), the GI50 (HCT-15) was over 100 µM and the GI50 (SK-MEL-28) was > 100 µM (inactive). For the same compound, the GI50 (LOX IMVI) was > 100 µM (inactive), the GI50 (EKVX) was > 100 µM (inactive) and the GI50 (U-251) was > 100 µM (inactive). The GI50 (HL-60) was > 100 µM (inactive), the GI50 (UACC-62) was > 100 µM (inactive) and the GI50 (KM12) was > 100 µM (inactive). For the same compound, the GI50 (MOLT-4) was > 100 µM (inactive), the GI50 (MDA-MB-231) was > 100 µM (inactive) and the GI50 (SK-MEL-2) was > 100 µM (inactive). The GI50 (UO-31) was > 100 µM (inactive), the GI50 (SR) was > 100 µM (inactive) and the GI50 (SW-620) was > 100 µM (inactive). For the same compound, the GI50 (MDA-MB-435) was > 100 µM (inactive), the GI50 (HT-29) was > 100 µM (inactive) and the GI50 (786-0) was > 100 µM (inactive). The GI50 (SK-OV-3) was > 100 µM (inactive) and the GI50 (RXF 393) was > 100 µM (inactive).
`COc1ccc2nc3ccc(OC)cc3c([S+]([O-])CCCl)c2c1` (stereo not given) was tested, and the GI50 (HCC 2998) was 23.2 µM (inactive), the GI50 (HCT-15) was 2.65 µM and the GI50 (SK-MEL-28) was 3.73 µM (inactive). For the same compound, the GI50 (LOX IMVI) was 2.4 µM (inactive), the GI50 (EKVX) was 10.5 µM (inactive) and the GI50 (U-251) was 14.5 µM (inactive). For the same compound, the GI50 (HL-60) was 2.31 µM (inactive), the GI50 (UACC-62) was 15.8 µM (inactive) and the GI50 (KM12) was 16.6 µM (inactive). For the same compound, the GI50 (MOLT-4) was 2.82 µM (inactive), the GI50 (MDA-MB-231) was 5.87 µM (inactive) and the GI50 (SK-MEL-2) was 17.7 µM (inactive). For the same compound, the GI50 (UO-31) was 2.28 µM (inactive), the GI50 (SR) was 2.67 µM (inactive) and the GI50 (SW-620) was 3.3 µM (inactive). The GI50 (MDA-MB-435) was 3.73 µM (inactive), the GI50 (HT-29) was 2.04 µM (inactive) and the GI50 (786-0) was 1.76 µM (inactive). The GI50 (SK-OV-3) was 20.7 µM (inactive) and the GI50 (RXF 393) was 3.59 µM (inactive).
With `OC(C1CCCCCCCCCC1)C(O)C1CCCCCCCCCC1` (stereo not given) the GI50 (HCC 2998) was > 100 µM (inactive), the GI50 (HCT-15) was over 100 µM and the GI50 (SK-MEL-28) was > 100 µM (inactive). For the same compound, the GI50 (LOX IMVI) was > 100 µM (inactive), the GI50 (EKVX) was > 100 µM (inactive) and the GI50 (U-251) was > 100 µM (inactive). The GI50 (HL-60) was > 100 µM (inactive), the GI50 (UACC-62) was > 100 µM (inactive) and the GI50 (KM12) was > 100 µM (inactive). The GI50 (MOLT-4) was 37.1 µM (inactive), the GI50 (MDA-MB-231) was > 100 µM (inactive) and the GI50 (SK-MEL-2) was > 100 µM (inactive). For the same compound, the GI50 (UO-31) was > 100 µM (inactive), the GI50 (SR) was > 100 µM (inactive) and the GI50 (SW-620) was > 100 µM (inactive). For the same compound, the GI50 (MDA-MB-435) was > 100 µM (inactive), the GI50 (HT-29) was > 100 µM (inactive) and the GI50 (786-0) was > 100 µM (inactive). For the same compound, the GI50 (SK-OV-3) was > 100 µM (inactive) and the GI50 (RXF 393) was 93.1 µM (inactive).
In the case of `CCOC(=O)c1c2c(n(-c3ccc(C)cc3)c1C)-c1ccccc1C(=O)C2(C(=O)OCC)C(=O)OCC`, the GI50 (HCC 2998) is reported as 31.4 µM (inactive), the GI50 (HCT-15) is reported as 36.1 µM and the GI50 (SK-MEL-28) is reported as 27.3 µM (inactive). For the same compound, the GI50 (LOX IMVI) was 33.8 µM (inactive), the GI50 (EKVX) was 32.4 µM (inactive) and the GI50 (U-251) was 70.1 µM (inactive). For the same compound, the GI50 (HL-60) was 6.34 µM (inactive), the GI50 (UACC-62) was 27.3 µM (inactive) and the GI50 (KM12) was 38.5 µM (inactive). For the same compound, the GI50 (MOLT-4) was 1.71 µM (inactive), the GI50 (MDA-MB-231) was 32.1 µM (inactive) and the GI50 (SK-MEL-2) was 36.3 µM (inactive). For the same compound, the GI50 (UO-31) was 23.1 µM (inactive), the GI50 (SR) was 1.31 µM (inactive) and the GI50 (SW-620) was 37.1 µM (inactive). The GI50 (MDA-MB-435) was 29.1 µM (inactive), the GI50 (HT-29) was 27.3 µM (inactive) and the GI50 (786-0) was 50.6 µM (inactive). For the same compound, the GI50 (SK-OV-3) was > 76.6 µM (inactive) and the GI50 (RXF 393) was 26.5 µM (inactive).
With `COc1cccc(C(=O)N[C@@H]2[C@H](O)[C@@H](CO)O[C@H]2n2cnc3c(N)ncnc32)c1` the GI50 (HCC 2998) was > 100 µM (inactive), the GI50 (HCT-15) was over 100 µM and the GI50 (SK-MEL-28) was > 100 µM (inactive). The GI50 (LOX IMVI) was > 100 µM (inactive), the GI50 (EKVX) was > 100 µM (inactive) and the GI50 (U-251) was > 100 µM (inactive). The GI50 (HL-60) was > 100 µM (inactive), the GI50 (UACC-62) was > 100 µM (inactive) and the GI50 (KM12) was > 100 µM (inactive). For the same compound, the GI50 (MOLT-4) was > 100 µM (inactive), the GI50 (MDA-MB-231) was > 100 µM (inactive) and the GI50 (SK-MEL-2) was > 100 µM (inactive). For the same compound, the GI50 (UO-31) was > 100 µM (inactive), the GI50 (SR) was > 100 µM (inactive) and the GI50 (SW-620) was > 100 µM (inactive). For the same compound, the GI50 (MDA-MB-435) was > 100 µM (inactive), the GI50 (HT-29) was > 100 µM (inactive) and the GI50 (786-0) was > 100 µM (inactive). The GI50 (SK-OV-3) was > 100 µM (inactive) and the GI50 (RXF 393) was > 100 µM (inactive).
With `COc1ccc(/C=C2/C(=O)N(C(=O)c3ccccc3O)N=C2C)cc1OC` the GI50 (HCC 2998) was > 24.3 µM (inactive), the GI50 (HCT-15) was 0.64 µM and the GI50 (SK-MEL-28) was 23.9 µM (inactive). The GI50 (LOX IMVI) was 0.603 µM (active), the GI50 (EKVX) was 1.38 µM (inactive) and the GI50 (U-251) was 0.202 µM (active). For the same compound, the GI50 (HL-60) was 0.687 µM (active), the GI50 (UACC-62) was 0.147 µM (active) and the GI50 (KM12) was 0.516 µM (active). For the same compound, the GI50 (MOLT-4) was 21.2 µM (inactive), the GI50 (MDA-MB-231) was > 100 µM (inactive) and the GI50 (SK-MEL-2) was 0.605 µM (active). For the same compound, the GI50 (UO-31) was 0.202 µM (active), the GI50 (SR) was 0.644 µM (active) and the GI50 (SW-620) was 3.27 µM (inactive). For the same compound, the GI50 (MDA-MB-435) was 0.355 µM (active), the GI50 (HT-29) was 16.8 µM (inactive) and the GI50 (786-0) was 1.26 µM (inactive). The GI50 (SK-OV-3) was 1.21 µM (inactive) and the GI50 (RXF 393) was 0.0214 µM (active).
